Results published in ChEMBL document CHEMBL1201862, “PubChem BioAssay data set” (2004).
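Briefly, cells in 96-well plates were exposed to five compound concentrations for 48 h, and endpoints were estimated by linear interpolation. GI50 = concentration required for 50% inhibition of growth.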 Activity calls are given as the source filed them. Cut-off read from the data, not from the text of the source: active = GI50 up to about 1.1 µM and inactive = higher.

Assays:
Assay in all cases: DTP human tumour cell line panel, 48 h
786-0 = test system: 786-0
A498 = test system: A498
CCRF-CEM = test system: CCRF-CEM
HCC 2998 = test system: HCC 2998
HCT-116 = test system: HCT-116
HOP-92 = test system: HOP-92
KM12 = test system: KM12
MCF7 = test system: MCF7
MDA-MB-435 = test system: MDA-MB-435
Malme-3M = test system: Malme-3M
OVCAR-3 = test system: OVCAR-3
RXF 393 = test system: RXF 393
SF-295 = test system: SF-295
SF-539 = test system: SF-539
SK-MEL-2 = test system: SK-MEL-2
SN12C = test system: SN12C
SNB-19 = test system: SNB-19
SNB-75 = test system: SNB-75
UO-31 = test system: UO-31

Measured: GI50

O=C(O)/C(=C/c1ccccc1)c1ccccc1
inactive: 786-0 > 100 µM | A498 > 100 µM | CCRF-CEM > 100 µM | HCC 2998 > 100 µM | HCT-116 > 100 µM | HOP-92 46.6 µM | KM12 > 100 µM | MCF7 > 100 µM | MDA-MB-435 > 100 µM | Malme-3M > 100 µM | OVCAR-3 > 100 µM | RXF 393 > 100 µM | SF-295 > 100 µM | SF-539 > 100 µM | SK-MEL-2 > 100 µM | SN12C > 100 µM | SNB-19 > 100 µM | SNB-75 > 100 µM | UO-31 > 100 µM

COC(=O)c1ccc(CCC2=CC(=O)C=CC2=O)cc1
active: CCRF-CEM 0.603 µM
inactive: 786-0 2.41 µM | A498 18.7 µM | HCC 2998 16.7 µM | HCT-116 7.8 µM | HOP-92 4.43 µM | KM12 11.9 µM | MCF7 6.59 µM | MDA-MB-435 11.7 µM | OVCAR-3 6.85 µM | RXF 393 12.5 µM | SF-295 16.6 µM | SF-539 11.5 µM | SK-MEL-2 16.4 µM | SN12C 24.5 µM | SNB-19 22.4 µM | SNB-75 16.3 µM | UO-31 7.36 µM

CC(=O)Oc1ccc2c(c1)Oc1cc(C(C)=O)ccc1C21OC(=O)c2ccccc21 (stereo unspecified)
inactive: 786-0 > 100 µM | A498 > 100 µM | HCC 2998 > 100 µM | HCT-116 > 100 µM | HOP-92 > 100 µM | KM12 > 100 µM | MCF7 > 100 µM | MDA-MB-435 88.3 µM | Malme-3M > 100 µM | OVCAR-3 60.3 µM | RXF 393 39.7 µM | SF-295 > 100 µM | SK-MEL-2 > 100 µM | SN12C > 100 µM | SNB-19 > 100 µM | SNB-75 94.8 µM | UO-31 85.5 µM

CCOC(=O)N1N=C(/C(C)=N/OC)C(C)[S+]1[O-] (stereo unspecified)
inactive: 786-0 > 100 µM | A498 > 100 µM | CCRF-CEM > 100 µM | HCC 2998 > 100 µM | HCT-116 > 100 µM | HOP-92 > 100 µM | KM12 > 100 µM | MCF7 > 100 µM | MDA-MB-435 > 100 µM | Malme-3M > 100 µM | OVCAR-3 > 100 µM | RXF 393 > 100 µM | SF-295 > 100 µM | SF-539 > 100 µM | SK-MEL-2 > 100 µM | SN12C > 100 µM | SNB-19 > 100 µM | SNB-75 85.3 µM | UO-31 > 100 µM

CC(C)C1OC(=O)C(Cc2ccccc2)N(C)C(=O)C(C(C)C)OC(=O)C(Cc2ccccc2)N(C)C(=O)C(C(C)C)OC(=O)C(Cc2ccccc2)N(C)C1=O (stereo unspecified)
active: CCRF-CEM 0.373 µM | HCC 2998 0.762 µM | HCT-116 0.989 µM | HOP-92 0.528 µM | KM12 0.501 µM | MCF7 0.647 µM | MDA-MB-435 0.641 µM | Malme-3M 0.359 µM | OVCAR-3 0.598 µM | RXF 393 0.887 µM | SF-295 0.662 µM | SF-539 1.03 µM | SK-MEL-2 0.628 µM | SN12C 0.804 µM | SNB-19 0.805 µM | UO-31 0.307 µM
inactive: 786-0 1.17 µM | A498 2.36 µM | SNB-75 1.63 µM

COc1cc(C23OCC(Cc4cc5c(cc42)OCO5)C3CO)cc(OC)c1OC (stereo unspecified)
inactive: 786-0 3.09 µM | A498 5.61 µM | CCRF-CEM 2.92 µM | HCT-116 2.89 µM | HOP-92 > 100 µM | Malme-3M 6.14 µM | OVCAR-3 1.46 µM | RXF 393 2.02 µM | SF-539 2.52 µM | SK-MEL-2 3.24 µM | SNB-19 3.14 µM | SNB-75 2.23 µM | UO-31 8.95 µM
active: HCC 2998 0.24 µM | KM12 0.215 µM | MCF7 0.21 µM | MDA-MB-435 0.119 µM | SF-295 0.266 µM

C/C=C(\C)C(=O)OC1CC(OC(C)=O)C2(C(=O)OC)COC3C2C1(C)C1C2(C(=O)OC)OCC1(C3O)C1(O)C3CC(C4(O)C=COC4O3)C1(C)O2 (stereo unspecified)
inactive: 786-0 > 100 µM | A498 > 100 µM | HCC 2998 62.5 µM | HCT-116 > 100 µM | HOP-92 > 100 µM | KM12 > 100 µM | MCF7 > 100 µM | MDA-MB-435 40.8 µM | OVCAR-3 > 100 µM | RXF 393 > 100 µM | SF-295 > 100 µM | SF-539 > 100 µM | SK-MEL-2 > 100 µM | SN12C > 100 µM | SNB-75 > 100 µM | UO-31 > 100 µM

COc1ccc(NC(C)=O)cc1N1C(=O)/C(=C\c2cc(OC)c(OC)c(OC)c2)SC1c1ccccc1 (stereo unspecified)
inactive: 786-0 54 µM | A498 75 µM | CCRF-CEM 37 µM | HCC 2998 > 100 µM | HCT-116 30 µM | HOP-92 29.5 µM | KM12 40.6 µM | MCF7 28.2 µM | MDA-MB-435 36 µM | Malme-3M 47 µM | OVCAR-3 36.1 µM | RXF 393 33.5 µM | SF-295 52 µM | SF-539 64.6 µM | SK-MEL-2 57.9 µM | SN12C 40.2 µM | SNB-19 83.4 µM | SNB-75 26.9 µM | UO-31 22.1 µM

Cc1nc2ccc(S(=O)(=O)O)cc2c(=O)n1-c1ccc(C(=O)NN2C(=O)C(Cl)C2c2cccs2)cc1 (stereo unspecified)
inactive: 786-0 > 100 µM | A498 > 100 µM | CCRF-CEM 63.1 µM | HCC 2998 > 100 µM | HCT-116 > 100 µM | HOP-92 > 100 µM | KM12 > 100 µM | MCF7 > 100 µM | MDA-MB-435 27.5 µM | Malme-3M > 100 µM | OVCAR-3 > 100 µM | RXF 393 > 100 µM | SF-295 > 100 µM | SF-539 48 µM | SK-MEL-2 23.3 µM | SN12C > 100 µM | SNB-19 > 100 µM | SNB-75 50.4 µM | UO-31 > 100 µM

CCCCSC1=N/C(=C\c2ccc(N(C)C)cc2)C(Cl)=N1
inactive: 786-0 > 100 µM | A498 78.2 µM | HCC 2998 > 100 µM | HCT-116 > 100 µM | HOP-92 > 100 µM | KM12 > 100 µM | MCF7 > 100 µM | MDA-MB-435 > 100 µM | Malme-3M > 100 µM | OVCAR-3 > 100 µM | RXF 393 > 100 µM | SF-295 > 100 µM | SF-539 > 100 µM | SK-MEL-2 > 100 µM | SN12C > 100 µM | SNB-19 > 100 µM | SNB-75 > 100 µM | UO-31 > 100 µM

Cc1coc2c1CC1(C)C(CCC(O)C1C)C2 (stereo unspecified)
inactive: 786-0 > 100 µM | A498 > 100 µM | CCRF-CEM > 100 µM | HCC 2998 > 100 µM | HCT-116 > 100 µM | HOP-92 > 100 µM | KM12 > 100 µM | MCF7 > 100 µM | MDA-MB-435 > 100 µM | Malme-3M > 100 µM | OVCAR-3 > 100 µM | RXF 393 > 100 µM | SF-295 > 100 µM | SF-539 > 100 µM | SK-MEL-2 > 100 µM | SN12C > 100 µM | SNB-19 > 100 µM | SNB-75 > 100 µM

O=[N+]([O-])c1ccc(-c2csc3nc(-c4ccccc4)nn23)cc1
inactive: 786-0 98.2 µM | A498 > 100 µM | CCRF-CEM > 100 µM | HCC 2998 > 100 µM | HCT-116 > 100 µM | HOP-92 50.5 µM | KM12 > 100 µM | MCF7 > 100 µM | MDA-MB-435 > 100 µM | Malme-3M > 100 µM | OVCAR-3 > 100 µM | RXF 393 40.8 µM | SF-295 28.3 µM | SK-MEL-2 > 100 µM | SN12C > 100 µM | SNB-19 > 100 µM | SNB-75 94.6 µM | UO-31 > 100 µM

CNc1ccc(C(=O)CC(O)CCC(C)C2OC(=O)CC(O)CC(=O)CC(O)CC(O)CC(O)CC(O)CC3(O)CC(O)C(C(=O)N4CCOCC4)C(CC(OC4OC(C)C(O)C(N)C4O)\C=C/C=C\C=C/C=C/C=C/C=C\C=C/C2C)O3)cc1 (stereo unspecified)
active: 786-0 0.325 µM | A498 0.147 µM | HCC 2998 0.374 µM | HCT-116 0.504 µM | HOP-92 0.281 µM | KM12 0.319 µM | MCF7 0.285 µM | MDA-MB-435 0.281 µM | Malme-3M 0.137 µM | OVCAR-3 0.435 µM | RXF 393 0.318 µM | SF-295 0.446 µM | SF-539 0.351 µM | SK-MEL-2 0.421 µM | SN12C 0.229 µM | SNB-19 0.365 µM | SNB-75 0.409 µM | UO-31 0.195 µM

Cc1ccc(S(=O)(=O)NC(=O)Nc2cccc(S(N)(=O)=O)c2)cc1
inactive: 786-0 > 100 µM | A498 > 100 µM | HCC 2998 > 100 µM | HCT-116 > 100 µM | HOP-92 > 100 µM | KM12 > 100 µM | MCF7 > 100 µM | MDA-MB-435 > 100 µM | Malme-3M > 100 µM | OVCAR-3 > 100 µM | RXF 393 > 100 µM | SF-295 > 100 µM | SF-539 > 100 µM | SK-MEL-2 > 100 µM | SNB-19 > 100 µM | SNB-75 > 100 µM | UO-31 > 100 µM

c1ccc2c(c1)nc1n2CCNC1
inactive: 786-0 > 100 µM | A498 > 100 µM | CCRF-CEM > 100 µM | HCC 2998 > 100 µM | HCT-116 > 100 µM | HOP-92 > 100 µM | KM12 > 100 µM | MCF7 > 100 µM | MDA-MB-435 > 100 µM | OVCAR-3 63 µM | RXF 393 > 100 µM | SF-295 > 100 µM | SF-539 > 100 µM | SK-MEL-2 > 100 µM | SN12C > 100 µM | SNB-19 > 100 µM | SNB-75 > 100 µM | UO-31 > 100 µM
